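Cells were grown in 96-well plates and exposed to each compound for 48 hours at five concentrations; endpoints were interpolated linearly between bracketing concentrations, or set to the highest concentration if not reached. At the GI50, growth is halved.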 Active and inactive are the calls of the source. Rule as the data show it: active = GI50 up to about 1.1 µM and inactive = higher.
Experiments:
Assay in all cases: NCI-60 cell line screen, 48 h
OVCAR-3 = tested on: OVCAR-3
NCI-H226 = tested on: NCI-H226
SF-295 = tested on: SF-295
SK-MEL-2 = tested on: SK-MEL-2
OVCAR-4 = tested on: OVCAR-4
EKVX = tested on: EKVX
CAKI-1 = tested on: CAKI-1
SW-620 = tested on: SW-620
T47D = tested on: T47D
TK-10 = tested on: TK-10
HCT-15 = tested on: HCT-15
ACHN = tested on: ACHN
HCT-116 = tested on: HCT-116
A498 = tested on: A498
MDA-MB-435 = tested on: MDA-MB-435
SK-MEL-5 = tested on: SK-MEL-5
786-0 = tested on: 786-0
COLO 205 = tested on: COLO 205
OVCAR-5 = tested on: OVCAR-5
SF-539 = tested on: SF-539

| SMILES | GI50 (OVCAR-3) | GI50 (NCI-H226) | GI50 (SF-295) | GI50 (SK-MEL-2) | GI50 (OVCAR-4) | GI50 (EKVX) | GI50 (CAKI-1) | GI50 (SW-620) | GI50 (T47D) | GI50 (TK-10) | GI50 (HCT-15) | GI50 (ACHN) | GI50 (HCT-116) | GI50 (A498) | GI50 (MDA-MB-435) | GI50 (SK-MEL-5) | GI50 (786-0) | GI50 (COLO 205) | GI50 (OVCAR-5) | GI50 (SF-539) |
| --- | --- | --- | --- | --- | --- | --- | --- | --- | --- | --- | --- | --- | --- | --- | --- | --- | --- | --- | --- | --- |
| COC(=O)c1c(O)ccc2c1c1c(n2Cc2cc(OC)cc(OC)c2)C(=O)c2ccccc2C1=O | 7.87 µM (inactive) | 14.7 µM (inactive) | 11.4 µM (inactive) | 10.9 µM (inactive) | 9.93 µM (inactive) | 11.6 µM (inactive) | 18.7 µM (inactive) | 9.51 µM (inactive) | 10.9 µM (inactive) | 13 µM (inactive) | 3.93 µM | 5.04 µM (inactive) | 4.74 µM (inactive) | 54.2 µM (inactive) | 2.67 µM (inactive) | 8.83 µM (inactive) | 7.74 µM (inactive) | 1.86 µM (inactive) | 21 µM (inactive) | 11.5 µM (inactive) |
| Cc1c(C)c2c(c(N)c1C#N)C(=O)N(Cc1ccc(S(N)(=O)=O)cc1)C2=O | > 41.5 µM (inactive) | > 30.5 µM (inactive) | 21.5 µM (inactive) | > 50.1 µM (inactive) | > 100 µM (inactive) | > 45 µM (inactive) | > 100 µM (inactive) | > 100 µM (inactive) | > 39.2 µM (inactive) | 22.4 µM (inactive) | > 72.9 µM | > 42.6 µM (inactive) | 32.9 µM (inactive) | 27.9 µM (inactive) | > 100 µM (inactive) | > 100 µM (inactive) | 16.8 µM (inactive) | > 100 µM (inactive) | 24.3 µM (inactive) | > 34.4 µM (inactive) |
| CN(C)CC1(Cc2ccccc2)CCC(Cc2ccccc2)C1=O (stereo not given) | 6.95 µM (inactive) | 20.1 µM (inactive) | 16.6 µM (inactive) | 12.2 µM (inactive) | 16.3 µM (inactive) | 17.1 µM (inactive) | 13.3 µM (inactive) | 3.67 µM (inactive) | 8.61 µM (inactive) | 13.4 µM (inactive) | 5.21 µM | 16.1 µM (inactive) | 11.1 µM (inactive) | 15.5 µM (inactive) | 10.2 µM (inactive) | 13.7 µM (inactive) | 2.07 µM (inactive) | 6.85 µM (inactive) | 18 µM (inactive) | 18.1 µM (inactive) |

From ChEMBL document CHEMBL1201862, “PubChem BioAssay data set” (2004)
